# Measured values taken from ChEMBL document CHEMBL1201862, “PubChem BioAssay data set” (2004).
#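 All cell lines were grown in 96-well plates and treated with compound for 48 hours. Abbreviation: GI50, concentration required for 50% inhibition of growth.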 Activity calls are given as the source filed them. Cut-off read from the data, not from the text of the source: active = GI50 up to about 1.1 µM and inactive = higher.
# Assays:
# Experiment in all cases: inhibition of tumour cell growth, NCI panel, 48 h
# [1] = tested on: CAKI-1
# [2] = tested on: CCRF-CEM
# [3] = tested on: EKVX
# [4] = tested on: HCC 2998
# [5] = tested on: HCT-116
# [6] = tested on: HL-60
# [7] = tested on: HOP-62
# [8] = tested on: Hs-578T
# [9] = tested on: MCF7
# [10] = tested on: MDA-MB-231
# [11] = tested on: MDA-MB-435
# [12] = tested on: Malme-3M
# [13] = tested on: NCI-H522
# [14] = tested on: NCI/ADR-RES
# [15] = tested on: OVCAR-3
# [16] = tested on: SF-539
# [17] = tested on: SK-MEL-5
# [18] = tested on: SNB-19
# [19] = tested on: T47D
Structure (SMILES),GI50 [1],GI50 [2],GI50 [3],GI50 [4],GI50 [5],GI50 [6],GI50 [7],GI50 [8],GI50 [9],GI50 [10],GI50 [11],GI50 [12],GI50 [13],GI50 [14],GI50 [15],GI50 [16],GI50 [17],GI50 [18],GI50 [19]
CCOC(CNCCC(=O)OC)OCC,> 10 µM (inactive),> 10 µM (inactive),> 10 µM (inactive),> 10 µM (inactive),> 10 µM (inactive),> 10 µM (inactive),> 10 µM (inactive),> 10 µM (inactive),> 10 µM (inactive),> 10 µM (inactive),> 10 µM (inactive),> 10 µM (inactive),> 10 µM (inactive),> 10 µM (inactive),> 10 µM (inactive),> 10 µM (inactive),> 10 µM (inactive),> 10 µM (inactive),> 10 µM (inactive)
C[C@H](CCC(=O)O)[C@H]1CC[C@H]2[C@@H]3[C@H](O)C[C@@H]4C[C@H](O)CC[C@]4(C)[C@H]3C[C@H](O)[C@]12C,> 100 µM (inactive),> 100 µM (inactive),> 100 µM (inactive),> 100 µM (inactive),> 100 µM (inactive),> 100 µM (inactive),> 100 µM (inactive),> 100 µM (inactive),> 100 µM (inactive),> 100 µM (inactive),> 100 µM (inactive),> 100 µM (inactive),> 100 µM (inactive),> 100 µM (inactive),> 100 µM (inactive),> 100 µM (inactive),> 100 µM (inactive),> 100 µM (inactive),> 100 µM (inactive)
COC(=O)C1(Cc2ccccc2)Cc2ccc3c(c2C1=O)CCC3 (stereo unspecified),9.73 µM (inactive),26.9 µM (inactive),13.1 µM (inactive),38.1 µM (inactive),30.5 µM (inactive),20.3 µM (inactive),> 74.6 µM (inactive),3.95 µM (inactive),23.1 µM (inactive),33.4 µM (inactive),24.9 µM (inactive),14.2 µM (inactive),20.8 µM (inactive),23.7 µM (inactive),> 49 µM (inactive),> 48.9 µM (inactive),18.5 µM (inactive),55.2 µM (inactive),11.5 µM (inactive)
Cc1ccc(C(=O)CCl)o1,3.12 µM (inactive),2.39 µM (inactive),> 10 µM (inactive),> 10 µM (inactive),1.86 µM (inactive),2.11 µM (inactive),> 10 µM (inactive),> 10 µM (inactive),3.52 µM (inactive),> 7.31 µM (inactive),3.25 µM (inactive),3.18 µM (inactive),2.92 µM (inactive),> 10 µM (inactive),> 7.23 µM (inactive),4.15 µM (inactive),> 7.96 µM (inactive),> 10 µM (inactive),4.61 µM (inactive)
O=C1Nc2ccccc2SC1=C(C(=O)c1ccccc1)C(=O)c1ccccc1,60.4 µM (inactive),4.17 µM (inactive),34.8 µM (inactive),22.2 µM (inactive),29.5 µM (inactive),0.091 µM (active),46.7 µM (inactive),31.6 µM (inactive),34.9 µM (inactive),27.1 µM (inactive),21.8 µM (inactive),> 85.7 µM (inactive),20.4 µM (inactive),40.1 µM (inactive),12.3 µM (inactive),39.6 µM (inactive),32.9 µM (inactive),41.2 µM (inactive),53 µM (inactive)
O=C1NC(c2ccccc2)C1N(Cc1ccccc1)Cc1ccccc1 (stereo unspecified),> 100 µM (inactive),> 100 µM (inactive),> 100 µM (inactive),> 100 µM (inactive),> 100 µM (inactive),> 100 µM (inactive),> 100 µM (inactive),61.2 µM (inactive),> 100 µM (inactive),74.1 µM (inactive),> 100 µM (inactive),> 100 µM (inactive),> 100 µM (inactive),> 100 µM (inactive),> 100 µM (inactive),> 100 µM (inactive),> 100 µM (inactive),> 100 µM (inactive),> 100 µM (inactive)
CC1=C(C(=O)OC(C)C)C(c2ccccc2[N+](=O)[O-])C(C(=O)OC(CO[N+](=O)[O-])CO[N+](=O)[O-])=C(C)N1 (stereo unspecified),3.32 µM (inactive),2.09 µM (inactive),2.85 µM (inactive),5.83 µM (inactive),2.55 µM (inactive),6.25 µM (inactive),3.07 µM (inactive),3.36 µM (inactive),3.55 µM (inactive),5.68 µM (inactive),3.48 µM (inactive),3.91 µM (inactive),2.42 µM (inactive),3.27 µM (inactive),6.49 µM (inactive),3.18 µM (inactive),2.7 µM (inactive),3.44 µM (inactive),4.99 µM (inactive)
C[C@]12CC[C@H]3[C@@H](CCC4=C[C@@H](OC5OCC(OC6OC(CO)C(O)C(O)C6O)C(O)C5O)CC[C@@]43C=O)[C@@]1(O)CCC2C1=CC(=O)OC1 (stereo partly specified),0.347 µM (active),0.244 µM (active),0.441 µM (active),0.421 µM (active),0.322 µM (active),0.244 µM (active),0.431 µM (active),0.522 µM (active),0.94 µM (active),3.02 µM (inactive),0.843 µM (active),0.59 µM (active),0.203 µM (active),0.469 µM (active),0.375 µM (active),0.391 µM (active),0.385 µM (active),3.11 µM (inactive),1.5 µM (inactive)
COc1ccc2c3c([nH]c2c1)CCN(CCCC(=O)c1ccc(F)cc1)C3,16 µM (inactive),19.8 µM (inactive),12.8 µM (inactive),5.53 µM (inactive),12.2 µM (inactive),15 µM (inactive),12.2 µM (inactive),6.56 µM (inactive),17.3 µM (inactive),15.8 µM (inactive),17.1 µM (inactive),13.4 µM (inactive),23.3 µM (inactive),18.6 µM (inactive),18.8 µM (inactive),9.89 µM (inactive),13.2 µM (inactive),14.8 µM (inactive),19 µM (inactive)
O=[N+]([O-])C(=C(\Cl)NCCO)/C(Cl)=C(/Cl)Br,0.558 µM (active),0.323 µM (active),4.85 µM (inactive),3.33 µM (inactive),1.61 µM (inactive),0.791 µM (active),10.8 µM (inactive),6 µM (inactive),0.716 µM (active),1.74 µM (inactive),1.3 µM (inactive),1.62 µM (inactive),1.1 µM (active),2.34 µM (inactive),1.32 µM (inactive),2.34 µM (inactive),2.44 µM (inactive),6.7 µM (inactive),1.74 µM (inactive)
COC(=O)c1c(O)ccc2c1c1c(n2Cc2ccccc2Cl)C(=O)c2ccccc2C1=O,13.7 µM (inactive),8.38 µM (inactive),16.9 µM (inactive),14.6 µM (inactive),10.5 µM (inactive),16.9 µM (inactive),26 µM (inactive),21.6 µM (inactive),6.73 µM (inactive),15.3 µM (inactive),10.7 µM (inactive),17 µM (inactive),10.9 µM (inactive),12.1 µM (inactive),10 µM (inactive),15.4 µM (inactive),12.5 µM (inactive),16 µM (inactive),7.01 µM (inactive)
O=C(CC(c1ccccc1)c1c(O)c2ccccc2oc1=O)c1ccccc1 (stereo unspecified),21.2 µM (inactive),59.7 µM (inactive),72.1 µM (inactive),93.3 µM (inactive),> 84.5 µM (inactive),90.2 µM (inactive),> 100 µM (inactive),> 69.5 µM (inactive),> 85.9 µM (inactive),> 100 µM (inactive),72.6 µM (inactive),> 84.9 µM (inactive),47 µM (inactive),54.2 µM (inactive),30.4 µM (inactive),> 100 µM (inactive),> 100 µM (inactive),> 95.7 µM (inactive),58.1 µM (inactive)
Cc1cc(=O)oc2cc(OC(=O)Nc3ccccc3)ccc12,> 100 µM (inactive),27.2 µM (inactive),> 100 µM (inactive),84.3 µM (inactive),47.8 µM (inactive),20.6 µM (inactive),> 100 µM (inactive),64.4 µM (inactive),88.1 µM (inactive),> 100 µM (inactive),> 100 µM (inactive),> 100 µM (inactive),53.1 µM (inactive),63.2 µM (inactive),61 µM (inactive),> 100 µM (inactive),59 µM (inactive),> 100 µM (inactive),41.9 µM (inactive)
S=C1Cc2cc3ccccc3nc2-c2ccccc2N1,29.6 µM (inactive),> 100 µM (inactive),38 µM (inactive),16.2 µM (inactive),13.6 µM (inactive),> 100 µM (inactive),11.6 µM (inactive),5.64 µM (inactive),38.9 µM (inactive),10.4 µM (inactive),29.7 µM (inactive),27.5 µM (inactive),24.9 µM (inactive),10.1 µM (inactive),9.57 µM (inactive),12.6 µM (inactive),44.8 µM (inactive),> 29.3 µM (inactive),8.3 µM (inactive)
